The values below come from US7855290B2, “Pyridine derivatives and pyrimidine derivatives (3)” (Eisai R&D Management Co., Ltd., priority 2005, dated 2010).

In assay [1] the test system is Human gastric cancer cells (MKN-45). The assay can be described thus: Inhibitory activity against the proliferation of human gastric cancer cells (MKN-45). The class given is cell-based. The following applies: 72 h, MKN-45, 1% FBS RPMI1640, 3 days, Cell Counting Kit-8. In a few lines:
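MKN-45 cells seeded overnight in RPMI1640 with 1% FBS, then exposed to compound for 3 days at 37° C, 5% CO2. Viability read with CCK-8 after about 1.5 hrs, absorbance at 450 nm (reference 660 nm).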

For assay [2], the target named is T1, His6-HGFR (HGFR cytoplasmic domain) (Homo sapiens, UniProt P08581).
T1 construct: made in house; host or cells: Sf9 insect cells (Spodoptera frugiperda), baculovirus, pFastBac-HT vector
T1 sequence (P08581 956-1390 limits assumed): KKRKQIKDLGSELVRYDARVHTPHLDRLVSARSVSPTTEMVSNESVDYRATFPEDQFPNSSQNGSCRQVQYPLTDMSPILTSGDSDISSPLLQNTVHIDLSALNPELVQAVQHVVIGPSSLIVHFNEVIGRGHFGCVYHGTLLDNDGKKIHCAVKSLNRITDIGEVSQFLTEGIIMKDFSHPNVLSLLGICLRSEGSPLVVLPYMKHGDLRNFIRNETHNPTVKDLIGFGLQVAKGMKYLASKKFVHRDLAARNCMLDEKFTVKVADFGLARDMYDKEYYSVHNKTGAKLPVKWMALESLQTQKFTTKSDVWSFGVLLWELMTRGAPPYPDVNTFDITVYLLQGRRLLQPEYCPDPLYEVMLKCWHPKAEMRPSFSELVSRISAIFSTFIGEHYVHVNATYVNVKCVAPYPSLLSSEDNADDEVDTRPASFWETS
The assay can be described thus: Inhibitory activity against HGFR tyrosine kinase activity (HTRF). The class given is biochemical. As to conditions: biotin-poly(GT), ATP, 30° C. 10 min. In a few lines:
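Sf9-expressed, Ni-NTA-purified N-terminal His6-tagged HGFR cytoplasmic domain (from Lys974), 30 ng, phosphorylates 250 ng biotin-poly(GT) in Hepes pH 7.4 with MgCl2, MnCl2 and Na3VO4. Reaction started with 4 μM ATP stock, run 10 min at 30° C, stopped with EDTA. Phosphotyrosine is detected by HTRF.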

With `CN(C)CCN1CCC(N(C)C(=O)Nc2cc(Oc3ccc(NC(=O)C4(C(=O)Nc5ccc(F)cc5)CC4)c(F)c3)ccn2)CC1` [Example 25, N-(4-{[2-({[{1-[2-(Dimethylamino)ethyl]piperidin-4-yl}(methyl)amino]carbonyl}amino)pyridin-4-yl]oxy}-2-fluorophenyl)-N′-(4-fluorophenyl)cyclopropane-1,1-dicarboxamide], the IC50 was 19 nM in assay [1] and 85 nM in assay [2].

For the compound `O=C(Nc1cc(Oc2ccc(NC(=O)C3(C(=O)Nc4ccc(F)cc4)CC3)cc2F)ccn1)N1CCC(CN2CCC2)CC1` [Example 26, N-(4-{[2-({[4-(Azetidin-1-ylmethyl)piperidin-1-yl]carbonyl}amino)pyridin-4-yl]oxy}-3-fluorophenyl)-N′-(4-fluorophenyl)cyclopropane-1,1-dicarboxamide], the IC50 was 19 nM in assay [1] and 58 nM in assay [2].

As to `CN1CC(N2CCN(C(=O)Nc3cc(Oc4ccc(NC(=O)C5(C(=O)Nc6ccc(F)cc6)CC5)cc4F)ccn3)CC2)C1` [Example 22, N-(3-Fluoro-4-{[2-({[4-(1-methylazetidin-3-yl)piperazin-1-yl]carbonyl}amino)pyridin-4-yl]oxy}phenyl)-N′-(4-fluorophenyl)cyclopropane-1,1-dicarboxamide], the IC50 in assay [1] came to 13 nM; in assay [2], 50 nM.

`CN(C)[C@H]1CCN(C(=O)Nc2cc(Oc3ccc(NC(=O)C4(C(=O)Nc5ccc(F)cc5)CC4)c(F)c3)ccn2)C1` [Example 46, N-(4-{[2-({[(3S)-3-(Dimethylamino)pyrrolidin-1-yl]carbonyl}amino)pyridin-4-yl]oxy}-2-fluorophenyl)-N′-(4-fluorophenyl)cyclopropane-1,1-dicarboxamide]: the values for the IC50 in assay [1] and in assay [2] were 14 nM and 64 nM, respectively.

Consider `CN(C)C1CN(C2CCN(C(=O)Nc3cc(Oc4ccc(NC(=O)C5(C(=O)Nc6ccc(F)cc6)CC5)cc4)ccn3)CC2)C1` [Example 38, N-[4-({2-[({4-[3-(Dimethylamino)azetidin-1-yl]piperidin-1-yl}carbonyl)amino]pyridin-4-yl}oxy)phenyl]-N′-(4-fluorophenyl)cyclopropane-1,1-dicarboxamide], for which the IC50 in assay [1] and in assay [2] was 52 nM throughout.

`O=C(Nc1cc(Oc2cc(F)c(NC(=O)C3(C(=O)Nc4ccc(F)cc4)CC3)cc2F)ncn1)N1CC(CO)C1` [Example 99, N-(2,5-Difluoro-4-{[4-({[3-(hydroxymethyl)azetidin-1-yl]carbonyl}amino)pyrimidin-6-yl]oxy}phenyl)-N′-(4-fluorophenyl)cyclopropane-1,1-dicarboxamide]: the values for the IC50 in assay [1] and in assay [2] were 18 nM and 33 nM, respectively.

`O=C(Nc1cc(Oc2ccc(NC(=O)C3(C(=O)Nc4ccc(F)cc4)CC3)c(F)c2)ccn1)N1CCC1` [Example 61, N-[4-({2-[(Azetidin-1-ylcarbonyl)amino]pyridin-4-yl]oxy}-2-fluorophenyl]-N′-(4-fluorophenyl)cyclopropane-1,1-dicarboxamide]: the IC50 in assay [1] and in assay [2] was 15 nM throughout.

With `CN1CCC(N(C)C(=O)Nc2cc(Oc3ccc(NC(=O)C4(C(=O)Nc5ccc(F)cc5F)CC4)c(F)c3)ccn2)CC1` [Example 56, N-(2,4-Difluorophenyl)-N′-(2-fluoro-4-{[2-({[methyl(1-methylpiperidin-4-yl)amino]carbonyl}amino)pyridin-4-yl]oxy}phenyl)cyclopropane-1,1-dicarboxamide], the IC50 in assay [1] stood at 53 nM; in assay [2], 110 nM.

Take `CN1CCC(N2CCN(C(=O)Nc3cc(Oc4ccc(NC(=O)C5(C(=O)Nc6ccc(F)cc6)CC5)c(F)c4)ccn3)CC2)CC1` [Example 16, N-(2-Fluoro-4-{[2-({[4-(1-methylpiperidin-4-yl)piperazin-1-yl]carbonyl}amino)pyridin-4-yl]oxy}phenyl)-N′-(4-fluorophenyl)cyclopropane-1,1-dicarboxamide]: the figures for the IC50 in assay [1] and in assay [2] were 17 nM and 64 nM, respectively.

With `CN(C)CCN1CCN(C(=O)Nc2cc(Oc3ccc(NC(=O)C4(C(=O)Nc5ccc(F)cc5)CC4)cc3F)ccn2)CC1` [Example 7, N-[4-({2-[({4-[2-(Dimethylamino)ethyl]piperazin-1-yl}carbonyl)amino]pyridin-4-yl}oxy)-3-fluorophenyl]-N′-(4-fluorophenyl)cyclopropane-1,1-dicarboxamide], the figures for the IC50 in assay [1] and in assay [2] were 18 nM and 51 nM, respectively.

Regarding `O=C(Nc1cc(Oc2ccc(NC(=O)C3(C(=O)Nc4ccc(F)cc4)CC3)cc2)ccn1)N1CCC(CN2CCCC2)CC1` [Example 29, N-(4-Fluorophenyl)-N′-(4-{[2-({[4-(pyrrolidin-1-ylmethyl)piperidin-1-yl]-carbonyl}amino)pyridin-4-yl]oxy}phenyl)cyclopropane-1,1-dicarboxamide], the IC50 stood at 50 nM in assay [1] and 63 nM in assay [2].

As to `CN1CCN(C2CCN(C(=O)Nc3cc(Oc4cc(F)c(NC(=O)C5(C(=O)Nc6ccc(F)cc6)CC5)cc4F)ncn3)CC2)CC1` [Example 101, N-(2,5-Difluoro-4-{[4-({[4-(4-methylpiperazin-1-yl)piperidin-1-yl]carbonyl}amino)pyrimidin-6-yl]oxy}phenyl)-N′-(4-fluorophenyl)cyclopropane-1,1-dicarboxamide], the values for the IC50 in assay [1] and in assay [2] were 16 nM and 72 nM, respectively.

Turning to `O=C(Nc1cc(Oc2ccc(NC(=O)C3(C(=O)Nc4ccc(F)cc4)CC3)cc2F)ncn1)N1CCOCC1` [Example 35, N-[3-Fluoro-4-({6-{(morpholin-4-ylcarbonyl)amino}pyrimidin-4-yl}oxy)phenyl]-N′-(4-fluorophenyl)cyclopropane-1,1-dicarboxamide], the IC50 in assay [1] stood at 230 nM; in assay [2], 29 nM.

As for `O=C(Nc1cc(Oc2ccc(NC(=O)C3(C(=O)Nc4ccc(F)cc4)CC3)c(F)c2)ccn1)N1CCCC1` [Example 62, N-(4-Fluorophenyl)-N′-[2-fluoro-4-({2-[(pyrrolidin-1-ylcarbonyl)amino]pyridin-4-yl}oxy)phenyl]cyclopropane-1,1-dicarboxamide], the results for the IC50 in assay [1] and in assay [2] were 25 nM and 20 nM, respectively.

For the compound `CN1CCN(C2CCN(C(=O)Nc3cc(Oc4ccc(NC(=O)C5(C(=O)Nc6ccccc6)CC5)c(F)c4)ccn3)CC2)CC1` [Example 54, N-(2-Fluoro-4-{[2-({[4-(4-methylpiperazin-1-yl)piperidin-1-yl]carbonyl}amino)pyridin-4-yl]oxy}phenyl)-N′-phenylcyclopropane-1,1-dicarboxamide], the IC50 in assay [1] is 20 nM; in assay [2] it was 64 nM.

`COC1CN(C(=O)Nc2cc(Oc3ccc(NC(=O)C4(C(=O)Nc5ccc(F)cc5)CC4)cc3F)ccn2)C1` [Example 79]: the IC50 turned out to be 15 nM in assay [1] and 14 nM in assay [2].

Turning to `COC1CN(C(=O)Nc2cc(Oc3ccc(NC(=O)C4(C(=O)Nc5ccc(F)cc5)CC4)c(F)c3)ccn2)C1` [Example 78, N-[2-Fluoro-4-[(2-{[(3-methoxyazetidin-1-yl)carbonyl]amino}pyridin-4-yl)oxy]phenyl}-N′-(4-fluorophenyl)cyclopropane-1,1-dicarboxamide], the figures for the IC50 in assay [1] and in assay [2] were 12 nM and 14 nM, respectively.

Take `O=C(Nc1cc(Oc2ccc(NC(=O)C3(C(=O)Nc4ccc(F)cc4)CC3)cc2)ccn1)N1CCN(CCN2CCC2)CC1` [Example 28, N-(4-{[2-({[4-(2-Azetidin-1-ylethyl)piperazin-1-yl]carbonyl}amino)pyridin-4-yl]oxy}phenyl)-N′-(4-fluorophenyl)cyclopropane-1,1-dicarboxamide]: the values for the IC50 in assay [1] and in assay [2] were 54 nM and 72 nM, respectively.

For the compound `CN1CC(N2CCN(C(=O)Nc3cc(Oc4ccc(NC(=O)C5(C(=O)Nc6ccc(F)cc6)CC5)c(F)c4)ccn3)CC2)C1` [Example 17], the IC50 in assay [1] is 14 nM; in assay [2] it was 48 nM.

Turning to `O=C(Nc1cc(Oc2ccc(NC(=O)C3(C(=O)Nc4ccc(F)cc4)CC3)cc2)ccn1)N1CCC(CN2CCC2)CC1` [Example 27, N-(4-{[2-({f [4-(Azetidin-1-ylmethyl)piperidin-1-yl]carbonyl}amino)pyridin-4-yl]oxy}phenyl)-N′-(4-fluorophenyl)cyclopropane-1,1-dicarboxamide], the IC50 in assay [1] stood at 48 nM; in assay [2], 59 nM.

On to `CN1CCC(N(C)C(=O)Nc2cc(Oc3ccc(NC(=O)C4(C(=O)Nc5ccccc5F)CC4)c(F)c3)ccn2)CC1` [Example 57, N-(2-Fluoro-4-{[2-({[methyl(1-methylpiperidin-4-yl)amino]carbonyl}amino)pyridin-4-yl]oxy}phenyl)-N′-(2-fluorophenyl)cyclopropane-1,1-dicarboxamide], for which the figures for the IC50 in assay [1] and in assay [2] were 150 nM and 180 nM, respectively.

For the compound `CN(C)[C@H]1CCN(C(=O)Nc2cc(Oc3ccc(NC(=O)C4(C(=O)Nc5ccccc5)CC4)c(F)c3)ccn2)C1` [Example 58, N-(4-{[2-({[(3S)-3-(Dimethylamino)pyrrolidin-1-yl]carbonyl}amino)pyridin-4-yl]oxy}-2-fluorophenyl)-N′-phenylcyclopropane-1,1-dicarboxamide], the IC50 worked out at 25 nM in assay [1] and 85 nM in assay [2].

`CN(C)CCN1CCN(C(=O)Nc2cc(Oc3ccc(NC(=O)C4(C(=O)Nc5ccc(F)cc5)CC4)c(F)c3)ccn2)CC1` [Example 2, N-[4-({2-[({4-[2-(Dimethylamino)ethyl]piperazin-1-yl}carbonyl)amino]pyridin-4-yl}oxy)-2-fluorophenyl]-N′-(4-fluorophenyl)cyclopropane-1,1-dicarboxamide]: the results for the IC50 in assay [1] and in assay [2] were 18 nM and 55 nM, respectively.

As a reminder, the IC50 is the concentration at which inhibition is half-maximal. Lower therefore signals greater potency in that assay.
